# Measurements from patent publication US20250296959A1, “B7-H3 TARGETING PEPTIDES AND CONSTRUCTS THEREOF” (Mariana Oncology Inc., priority 2024, published 2025).
# Starred links: 1 amine or outer side, 2 acyl side, 3 side chain; linkers in the order of their positions; H or OH if unused. Positions of bridges follow the written chain, without caps; N, C: chain ends. Non-standard residues stand in square brackets, D forms with d. Residues, ends and D or L forms follow the SMILES beside them. Groups on a side chain read outwards from the residue. ξ: configuration not given here. *: point of attachment. X7 = O=C(O)CN1CCN(CC(=O)O)CCN(CC(=O)NCCOCCOCCOCCOCCOCCOCCOCCOCC(=O)*)CCN(CC(=O)O)CC1; X9 = CC(=O)N[C@@H](CCC(C)C)C(O)N([C@@H](Cc1ccc(O)cc1)C(=O)[*:2])[*:1]; Ala(piperidin-4-yl) = O=C([C@H](CC1CCN([*:3])CC1)N[*:1])[*:2]; DOTA = O=C(O)CN1CCN(CC(=O)O)CCN(CC(=O)*)CCN(CC(=O)O)CC1; Phe(4-COOH) = N[C@@H](Cc1ccc(C(=O)O)cc1)C(=O)O; Trp(5-F) = N[C@@H](Cc1c[nH]c2ccc(F)cc12)C(=O)O; γGlu = O=C(O)[C@H](CCC(=O)[*:2])N[*:1]; 1Nal = N[C@@H](Cc1cccc2ccccc12)C(=O)O; Ala(4-THP) = N[C@@H](CC1CCOCC1)C(=O)O; Val(3-OH) = CC(C)(O)[C@H](N)C(=O)O; Cha = N[C@@H](CC1CCCCC1)C(=O)O; Tle = CC(C)(C)[C@H](N)C(=O)O; hLeu = CC(C)CC[C@H](N)C(=O)O; NMeS = CN[C@@H](CO)C(=O)O; Nle = CCCC[C@H](N)C(=O)O; ξV = CC(C)C(N)C(=O)O
# Molecular target: T1, human 4lg B7-H3 (Homo sapiens, UniProt Q5ZPR3)
# T1 sequence (Q5ZPR3 29-534): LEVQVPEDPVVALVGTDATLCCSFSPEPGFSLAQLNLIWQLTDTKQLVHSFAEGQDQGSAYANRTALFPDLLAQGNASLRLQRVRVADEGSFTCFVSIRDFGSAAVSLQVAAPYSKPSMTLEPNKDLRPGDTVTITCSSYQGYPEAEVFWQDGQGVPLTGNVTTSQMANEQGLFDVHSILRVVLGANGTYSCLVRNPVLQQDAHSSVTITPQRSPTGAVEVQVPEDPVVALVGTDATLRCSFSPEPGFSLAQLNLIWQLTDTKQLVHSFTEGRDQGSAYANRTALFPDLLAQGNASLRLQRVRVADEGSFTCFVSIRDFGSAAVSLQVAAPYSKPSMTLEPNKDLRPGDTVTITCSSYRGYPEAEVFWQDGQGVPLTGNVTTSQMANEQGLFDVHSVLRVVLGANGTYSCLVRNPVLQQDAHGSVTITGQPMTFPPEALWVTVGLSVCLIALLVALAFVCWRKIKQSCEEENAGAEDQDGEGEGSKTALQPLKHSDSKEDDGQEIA
# Experiment: Affinity determination by surface plasmon resonance (SPR) to 4Ig B7-H3
# Settings: SPR KD—25° C., 4Ig B7-H3; 25° C. flow cell temperature
row,Structure (SMILES),Kd [nM]
1,"CCCC[C@@H]1NC(=O)[C@H](C(C)C)NC(=O)[C@H](CC(=O)O)NC(=O)[C@H](Cc2ccc(C(=O)O)cc2)NC(=O)[C@H](CCCCNC(=O)CN2CCN(CC(=O)O)CCN(CC(=O)O)CCN(CC(=O)O)CC2)NC(=O)CNC(=O)[C@H](C(C)C)NC(=O)[C@@H](NC(=O)[C@H](Cc2ccc(O)cc2)NC(=O)[C@H](CCC(C)C)NC(C)=O)CSSC[C@@H](C(=O)N[C@@H](Cc2c[nH]c3ccc(F)cc23)C(=O)N[C@@H](Cc2ccccc2)C(=O)N2CCC[C@H]2C(N)=O)NC1=O [compound 302, Ac-hLeu-Y-C-V-G-Lys(DOTA)-4COOHPhe-D-V-Nle-C-5FW-F-Pro-CONH2] (Ac-[hLeu]YCVGK(DOTA)[Phe(4-COOH)]DV[Nle]C[Trp(5-F)]FP-NH2; disulfide 3-11)",100 to 300
2,"CC(=O)N[C@@H](CCC(C)C)C(O)N[C@@H](Cc1ccc(O)cc1)C(=O)N[C@H]1CSSC[C@@H](C(=O)N[C@@H](Cc2cccc3ccccc23)C(=O)N[C@@H](Cc2ccccc2)C(=O)N2CCC[C@H]2C(=O)N[C@H](CCCCNC(=O)COCCOCCOCCOCCOCCOCCOCCOCCNC(=O)CN2CCN(CC(=O)O)CCN(CC(=O)O)CCN(CC(=O)O)CC2)C(N)=O)NC(=O)[C@H](Cc2ccc(O)cc2)NC(=O)[C@H](C(C)C)NC(=O)[C@H](CC(=O)O)NC(=O)[C@H](CC2CCCCC2)NC(=O)[C@H](CC2CCNCC2)NC(=O)CNC(=O)[C@H](C(C)(C)C)NC1=O (stereo partly drawn) [compound 281, Ac-hLeu-Y-C-Tbg-G-PipAla-CHA-D-V-Y-C-1Nal-F-Pro-dLys(PEG8-DOTA)-CONH2] (H-[X9]C[Tle]G[Ala(piperidin-4-yl)][Cha]DVYC[1Nal]FP[dK](X7)-NH2; disulfide 2-10)",1 to 10
3,"CCCC[C@H](NC(C)=O)C(=O)N[C@@H](Cc1ccc(O)cc1)C(=O)N[C@H]1CSSC[C@@H](C(=O)N[C@@H](Cc2c[nH]c3ccccc23)C(=O)N[C@@H](Cc2ccccc2)C(=O)N[C@H](C(=O)N[C@H](CCCCNC(=O)CN2CCN(CC(=O)O)CCN(CC(=O)O)CCN(CC(=O)O)CC2)C(N)=O)[C@@H](C)O)NC(=O)[C@H](Cc2ccc(O)cc2)NC(=O)[C@H](C(C)C)NC(=O)[C@H](CC(=O)O)NC(=O)[C@H](Cc2ccc(O)cc2)NC(=O)[C@H](CCCCN)NC(=O)CNC(=O)[C@H](C(C)(C)C)NC1=O [compound 61, Ac-Nle-Y-C-Tbg-G-K-Y-D-V-Y-C-W-F-Thr-dLys(DOTA)-CONH2] (Ac-[Nle]YC[Tle]GKYDVYCWFT[dK](DOTA)-NH2; disulfide 3-11)",1 to 10
4,"CCCC[C@H](NC(C)=O)C(=O)N[C@@H](Cc1ccc(O)cc1)C(=O)N[C@H]1CSSC[C@@H](C(=O)N[C@@H](Cc2cccc3ccccc23)C(=O)N[C@@H](Cc2ccccc2)C(=O)N[C@H](C(=O)N[C@H](CCCCNC(=O)CN2CCN(CC(=O)O)CCN(CC(=O)O)CCN(CC(=O)O)CC2)C(N)=O)[C@@H](C)O)NC(=O)[C@H](Cc2ccc(O)cc2)NC(=O)C(C(C)C)NC(=O)[C@H](CC(=O)O)NC(=O)[C@H](Cc2ccc(O)cc2)NC(=O)[C@H](CCCCN)NC(=O)CNC(=O)[C@H](C(C)C)NC1=O (stereo partly drawn) [compound 128, Ac-Nle-Y-C-V-G-K-Y-D-V-Y-C-1Nal-F-Thr-dLys(DOTA)-CONH2] (Ac-[Nle]YCVGKYD[ξV]YC[1Nal]FT[dK](DOTA)-NH2; disulfide 3-11)",1 to 10
5,"CC(=O)N[C@@H](CCC(C)C)C(=O)N[C@@H](Cc1ccc(O)cc1)C(=O)N[C@H]1CSSC[C@@H](C(=O)N[C@@H](Cc2c[nH]c3ccc(F)cc23)C(=O)N[C@H](C(=O)N[C@H](C(=O)N[C@H](CCCCNC(=O)CN2CCN(CC(=O)O)CCN(CC(=O)O)CCN(CC(=O)O)CC2)C(=O)O)[C@@H](C)O)C(C)(C)C)NC(=O)[C@H](Cc2ccc(O)cc2)NC(=O)[C@H](C(C)C)NC(=O)[C@H](CC(=O)O)NC(=O)[C@H](CC2CCOCC2)NC(=O)[C@H](CCCCN)NC(=O)CNC(=O)[C@H](C(C)(C)C)NC1=O [compound 335, Ac-hLeu-Y-C-Tbg-G-K-ThpA-D-V-Y-C-5FW-Tbg-Thr-dLys(DOTA)-COOH] (Ac-[hLeu]YC[Tle]GK[Ala(4-THP)]DVYC[Trp(5-F)][Tle]T[dK](DOTA)-OH; disulfide 3-11)",1 to 10

# More lines, now with the values ahead:
row,Kd [nM],Structure (SMILES)
1,1 to 10,"CC(=O)N[C@@H](CCC(C)C)C(=O)N[C@@H](Cc1ccc(O)cc1)C(=O)N[C@H]1CSSC[C@@H](C(=O)N[C@@H](Cc2c[nH]c3ccccc23)C(=O)N[C@@H](Cc2ccccc2)C(=O)N[C@H](C(=O)N[C@H](CCCCNC(=O)CN2CCN(CC(=O)O)CCN(CC(=O)O)CCN(CC(=O)O)CC2)C(N)=O)[C@@H](C)O)NC(=O)[C@H](Cc2ccc(O)cc2)NC(=O)[C@H](C(C)C)NC(=O)[C@H](CC(=O)O)NC(=O)[C@H](Cc2ccc(O)cc2)NC(=O)[C@H](CCCCN)NC(=O)CNC(=O)[C@H](C(C)C)NC1=O [Cpd #67, Ac-hLeu-Y-C-V-G-K-Y-D-V-Y-C-W-F-Thr-dLys(DOTA)-CONH2] (Ac-[hLeu]YCVGKYDVYCWFT[dK](DOTA)-NH2; disulfide 3-11)"
2,1 to 10,"CC[C@H](C)[C@@H]1NC(=O)[C@@H](NC(=O)[C@H](Cc2ccc(O)cc2)NC(=O)[C@H](CCC(C)C)NC(C)=O)CSSC[C@@H](C(=O)N[C@@H](Cc2c[nH]c3ccc(F)cc23)C(=O)N[C@@H](Cc2ccccc2)C(=O)N2CCC[C@H]2C(N)=O)NC(=O)[C@H](Cc2ccc(O)cc2)NC(=O)[C@H](C(C)C)NC(=O)[C@H](CC(=O)O)NC(=O)[C@H](CC2CCOCC2)NC(=O)[C@H](CCCCNC(=O)CN2CCN(CC(=O)O)CCN(CC(=O)O)CCN(CC(=O)O)CC2)NC(=O)CNC1=O [compound 261, Ac-hLeu-Y-C-Ile-G-Lys(DOTA)-ThpA-D-V-Y-C-5FW-F-Pro-CONH2] (Ac-[hLeu]YCIGK(DOTA)[Ala(4-THP)]DVYC[Trp(5-F)]FP-NH2; disulfide 3-11)"
3,< 1,"CC(=O)N[C@@H](CCC(C)C)C(=O)N[C@@H](Cc1ccc(O)cc1)C(=O)N[C@H]1CSSC[C@@H](C(=O)N[C@@H](Cc2c[nH]c3ccc(F)cc23)C(=O)N[C@@H](Cc2ccccc2)C(=O)N(C)[C@@H](CO)C(=O)N[C@H](CCCCNC(=O)CN2CCN(CC(=O)O)CCN(CC(=O)O)CCN(CC(=O)O)CC2)C(N)=O)NC(=O)[C@H](Cc2ccc(O)cc2)NC(=O)[C@H](C(C)C)NC(=O)[C@H](CC(=O)O)NC(=O)[C@H](Cc2ccc(O)cc2)NC(=O)[C@H](CCCCN)NC(=O)CNC(=O)[C@H](C(C)C)NC1=O [compound 148, Ac-hLeu-Y-C-V-G-K-Y-D-V-Y-C-5FW-F-NMeSer-dLys(DOTA)-CONH2] (Ac-[hLeu]YCVGKYDVYC[Trp(5-F)]F[NMeS][dK](DOTA)-NH2; disulfide 3-11)"

# Same assay, conditions: SPR KD—37° C., 4Ig B7-H3; 37° C. flow cell temperature
row,Kd [nM],Structure (SMILES)
1,< 1,"CC(=O)N[C@@H](CCC(C)C)C(=O)N[C@@H](Cc1ccc(O)cc1)C(=O)N[C@H]1CSSC[C@@H](C(=O)N[C@@H](Cc2c[nH]c3ccc(F)cc23)C(=O)N[C@@H](Cc2ccccc2)C(=O)N[C@H](C(=O)N[C@H](CCCCNC(=O)CC[C@H](NC(=O)CN2CCN(CC(=O)O)CCN(CC(=O)O)CCN(CC(=O)O)CC2)C(=O)O)C(N)=O)C(C)(C)O)NC(=O)[C@H](Cc2ccc(O)cc2)NC(=O)[C@H](C(C)C)NC(=O)[C@H](CC(=O)O)NC(=O)[C@H](CC2CCOCC2)NC(=O)[C@H](CC2CCNCC2)NC(=O)CNC(=O)[C@H](C(C)(C)C)NC1=O [compound 452, Ac-hLeu-Y-C-Tbg-G-PipAla-ThpA-D-V-Y-C-5FW-F-hydroxyVal-dLys(gE-DOTA)-CONH2] (Ac-[hLeu]YC[Tle]G[Ala(piperidin-4-yl)][Ala(4-THP)]DVYC[Trp(5-F)]F[Val(3-OH)][dK]([γGlu-DOTA])-NH2; disulfide 3-11)"
